Experimental data as given in patent publication US20090318468A1, “PYRAZOLE COMPOUNDS 436” (AstraZeneca AB, priority 2008, published 2009).
Values joined by “and” are separate entries in the source; they are usually repeats but may differ in a detail not shown here. Identical values can stand only once. Like-named read-outs stand apart in the source and are kept apart here.

What was measured:
[1] = Protein binding by equilibrium dialysis (rat); assay type: in vitro ADME; conditions: 20 μM compound, 10% plasma, 37° C., read-out: % free (protein binding)
Method: Protein binding is determined by equilibrium dialysis. A 20 μM concentration of compound is dialyzed against 10% plasma at a temperature of 37° C. for 18 h. The resulting samples are analyzed using generic HPLC-UV methodology coupled with mass spectral peak identification. The reported K1 value is the first apparent association constant [proteináligand]/([protein][ligand]), all concentrations being measured in moles/liter (J. Med. Chem., 2006, 49(23), 6672-6682).
Protein binding can be measured in a high-throughput screen by equilibrium dialysis combined with liquid chromatography and mass spectrometry (Wan, H. and Rehngren, M., J. Chromatogr. A 2006, 1102, 125-134).

[2] = Clearance (pharmacokinetics) in dogs; assay type: in vivo; conditions: dog, whole blood, dose 0.927 mg/kg (2 umol/kg); for Vd: read-out: Vss
Method: For the dog dose of 0.927 mg/kg (2 umol/kg), the compounds were formulated in 10% DMSO:90% hydroxyl-propyl-β-cyclodextrin (25% w/v) in sorensens buffer pH 5 at 2 umol/ml. Each formulation was dosed (1 mL/kg) to a male and female dog (8-15 kg) which had been fasted overnight. Blood samples were taken via the jugular vein at 5, 10, 20 and 40 minutes, and 1, 2, 4, 6, 12 and 24 hours post dose. The blood samples were diluted 1:1 with water prior to anaylsis.
A set of 10 calibration standards covering the concentration range (0.001 umol/L to 10 umol/L) were prepared by spiking blank matrix (1:1 blood:water). The samples and standards were extracted using a solid phase extraction plate, blown down under nitrogen, and then reconstituted in methanol:water (20:80). The samples were analysed using LC-MSMS and the results obtained were used to determine the area under the curve from time 0 to infinity [AUC0-inf (ug.hr/ml)], clearance [Cl (ml/min/kg)] and the steady state volume distribution [Vss (L/kg)] for each compound.

[3] = biological target: T1, human cytochrome P450 (CYP) 2C19 (Homo sapiens, UniProt P33261); experiment: Cytochrome P450 Inhibition Assay, CYP 2C19; assay type: in vitro ADME; conditions: test compound 0.1-10 μM, substrate MFC; read-out: Ic50 2C19
T1 construct: made in house; host or cells: yeast (microsomal fraction)
Method: Cytochrome P450 Inhibition Assay
The inhibitory potential (IC50) of test compounds against 5 human cytochrome P450 (CYP) isoforms (1A2, 2C9, 2C19, 3A4 and 2D6) was assessed using an automated fluorescent end point in vitro assay modified from Crespi (Crespi and Stresser, J Pharmacol Toxicol Methods 2000, 44: 325-331). Microsomal subcellular fractions prepared from Yeast cell lines expressing each human CYP isoform were used as an enzyme source in this assay. The activity of the 5 major human CYPs was determined from the biotransformation of a number of coumarin substrates to fluorescent metabolites, in the presence of NADPH. […] Stock solutions of each CYP, with its respective substrate, were prepared in phosphate buffer pH 7.4 (see Table 1) and 178 μl was added to the well of a black solid, flat bottom, 300 μl 96 well microtitre plate (Corning Costar). […] After pre-incubating at 37° C. for 5 min the reactions were started with addition of NADPH (20 μl, concentration shown in Table 1). The final solvent content in each incubation was <=2% (1% from the test compound and a maximum of 1% from the substrate). The appropriate solvent controls and substrate blanks were included in each experiment to assess control activity and identify any inherent fluorescence due to the test compounds. In addition, known inhibitors of each CYP were included as positive controls (see Table 3 for inhibitor concentrations and expected IC50 ranges). The reactions were stopped at defined timepoints (see Table 1) by quenching with 100 μl of solvent (acetonitrile:0.5M Tris buffer 80:20 v/v). The plates were read on a fluorimeter (Spectrafluor Plus) at the appropriate excitation and emission wavelengths (listed in Table 2) and the percent activity, corrected for control, was plotted against the test compound concentration.

FGFR1 = FGFR1 (Homo sapiens, UniProt P11362); experiment: FGFR1 Kinase Assay - Caliper Echo Dosing; assay type: biochemical; conditions: 408 uM ATP, separate test occasions listed, read-out: IC50 (inhibition of FGFR1 kinase activity)
Method: FGFR1 Kinase Assay—Caliper Echo Dosing
To determine inhibition of FGFR1 activity, kinase assays were conducted using Caliper technology.
Kinase activity assays were performed in Greiner 384-well low volume plates, with a total reaction volume of 12 ul per well. Final concentration of FGFR1 active kinase in each reaction well was 7.2 nM. The substrate for each assay was a custom peptide with fluorescent tag (13 amino acids in length, […] with the fluorescene tag on the first K).
Compounds were dispensed directly in to assay plates using a Labcyte Echo 550 acoustic droplet ejection unit. […]
Assay plates were incubated at room temperature for 1.5 h, before the reaction was stopped with the addition of buffer [comprising: 100 mM HEPES—pH 7.5, 0.033% Brij-35 (Sigma Catalogue No. B4184), 0.22% Caliper Coating Reagent #3 (Caliper Life Sciences Catalogue No. 760050), 88 mM EDTA, 5% DMSO]. Stopped assay plates were then read using the Caliper LabChip® LC3000 (which uses microfludics to measure a shift in mobility between fluorescent labelled peptide and the FGFR1 kinase—phosphorylated form of this peptide).
In the assay, compounds were tested at a range of concentrations. […] Percentage inhibition at 1 uM, as expressed herein, is a calculated value based on the curve fit that was generated experimentally. […] This value is calculated using a standard curve fitting software package Origin™. […]

Chain of FGFR1 (P11362 22-822): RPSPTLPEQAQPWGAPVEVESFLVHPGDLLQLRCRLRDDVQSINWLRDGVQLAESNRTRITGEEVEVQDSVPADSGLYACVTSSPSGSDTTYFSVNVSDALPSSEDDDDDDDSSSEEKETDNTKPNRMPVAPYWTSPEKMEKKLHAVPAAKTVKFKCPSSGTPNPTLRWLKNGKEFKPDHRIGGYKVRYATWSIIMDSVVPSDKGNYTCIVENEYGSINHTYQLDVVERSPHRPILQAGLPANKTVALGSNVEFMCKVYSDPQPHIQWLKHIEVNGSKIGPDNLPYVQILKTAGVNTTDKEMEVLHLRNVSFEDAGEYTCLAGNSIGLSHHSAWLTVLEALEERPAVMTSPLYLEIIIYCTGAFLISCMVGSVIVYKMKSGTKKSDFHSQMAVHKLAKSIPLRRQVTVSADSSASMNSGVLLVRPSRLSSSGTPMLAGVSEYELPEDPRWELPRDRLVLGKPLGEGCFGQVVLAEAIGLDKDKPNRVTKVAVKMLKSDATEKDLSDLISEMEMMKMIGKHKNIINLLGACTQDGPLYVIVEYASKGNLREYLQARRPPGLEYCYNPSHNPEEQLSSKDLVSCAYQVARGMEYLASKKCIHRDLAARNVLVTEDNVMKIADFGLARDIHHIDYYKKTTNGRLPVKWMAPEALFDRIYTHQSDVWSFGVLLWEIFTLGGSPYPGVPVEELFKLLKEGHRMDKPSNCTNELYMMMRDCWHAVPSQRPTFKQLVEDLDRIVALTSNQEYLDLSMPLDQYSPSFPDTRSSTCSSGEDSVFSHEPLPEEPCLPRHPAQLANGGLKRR
T1 sequence (P33261 whole entry): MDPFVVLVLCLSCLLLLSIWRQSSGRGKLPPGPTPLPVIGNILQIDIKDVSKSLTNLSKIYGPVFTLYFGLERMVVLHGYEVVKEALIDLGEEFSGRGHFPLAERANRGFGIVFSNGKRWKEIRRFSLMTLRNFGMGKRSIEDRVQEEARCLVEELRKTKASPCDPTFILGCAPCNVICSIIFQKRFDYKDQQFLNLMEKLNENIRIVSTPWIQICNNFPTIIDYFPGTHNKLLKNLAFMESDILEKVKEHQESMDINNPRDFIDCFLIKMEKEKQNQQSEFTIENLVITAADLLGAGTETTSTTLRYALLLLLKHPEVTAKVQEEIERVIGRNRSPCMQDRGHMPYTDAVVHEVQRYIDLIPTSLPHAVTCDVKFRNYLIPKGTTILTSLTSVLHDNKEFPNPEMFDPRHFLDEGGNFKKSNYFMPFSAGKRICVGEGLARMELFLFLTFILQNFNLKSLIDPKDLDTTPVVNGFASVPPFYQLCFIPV

| fraction unbound at 18 h, 20 μM [1] | AUC(0-inf) ([2]; female dogs) | clearance ([2]; female dogs) | Vd ([2]; female dogs) | AUC(0-inf) ([2]; male dogs) | clearance ([2]; male dogs) | Vd ([2]; male dogs) | IC50 [3] | IC50 (FGFR1) | Compound |
| --- | --- | --- | --- | --- | --- | --- | --- | --- | --- |
| 0.0091 | 427 ng·h/mL | 36.2 mL/min/kg | 7.08 L/kg | 585 ng·h/mL | 26.4 mL/min/kg | 3.71 L/kg | > 10000 nM | 0.74 nM | COc1cc(CCc2cc(NC(=O)c3ccc(N4CCN(C)[C@@H](C)C4)cc3)[nH]n2)cc(OC)c1 [Example 1a, (S)—N-(3-(3,5-Dimethoxyphenethyl)-1H-pyrazol-5-yl)-4-(3,4-dimethylpiperazin-1-yl)benzamide] |
| 0.0062 | 1350 ng·h/mL | 11.5 mL/min/kg | 1.71 L/kg | 1240 ng·h/mL | 12.5 mL/min/kg | 6.55 L/kg | 8010 nM | 1.1 nM and 0.64 nM and 0.76 nM | COc1cc(CCc2cc(NC(=O)c3ccc(N4CCN(C)[C@H](C)C4)cc3)[nH]n2)cc(OC)c1 [Example 1b, (R)—N-(3-(3,5-Dimethoxyphenethyl)-1H-pyrazol-5-yl)-4-(3,4-dimethylpiperazin-1-yl)benzamide] |
